Measured values reported in patent US20190183959A1, “COMPOSITIONS, KITS AND METHODS FOR TREATING TYPE II DIABETES MELLITUS” (VITNOVO, INC., priority 2017, published 2019).

Test system: NIDDM mice
Test: Oral glucose tolerance test after 28 days of oral dosing in NIDDM db/db mice (Example 2)
Type: in vivo, mouse
Conditions: HC extract 80 mg/Kg, sitagliptin 40 mg/Kg, p.o.
Method: Non-insulin dependent diabetic mellitus (NIDDM) male db/db (BKS.Cg-Dock 7^m+/+Lepr^db/JNarl) were used in the present study. They were supplied by National Laboratory Animal Center (NLAC) (Taipei, Taiwan) or by Jackson Laboratory (Bar Harbor, Me., USA). […] In Example 2, test compounds (i.e., HC extract (40 mg/Kg from day 1 to day 14; 80 mg/Kg from day 14 to day 28, p.o.), sitagliptin (40 mg/Kg, p.o.), or the combination of HC extract and sitagliptin) at the designated dose was fed to each mice by oral gavage from day 1, and continued for 27 consecutive days to day 28. […] Blood glucose, insulin, glucagon, glycated haemoglobin (HbA1c) levels were measured on designated days after overnight fasting. Then, oral glucose tolerance test (OGTT) was performed to evaluate effects of respective treatments on glucose homeostasis. Body weight of each test animal was also measured during the study period. The db/db mice were randomly divided into 4 groups: (1) the vehicle control group, (2) the HC extract (80 mg/kg), (3) the sitagliptin (40 mg/Kg) group, and […] the HC extract (80 mg/kg)+sitagliptin (40 mg/Kg) group. The mice were fasted for 5 hours and then respectively received the indicated treatments. […] The animals were treated by the manner described in the “Material and Methods” section.

N[C@@H](CC(=O)N1CCn2c(nnc2C(F)(F)F)C1)Cc1cc(F)c(F)cc1F [sitagliptin]
reduction in the level of total blood glucose (FIG. 3) (30 minutes time point post glucose treatment): about 11.3%
effect on fasting blood glucose level (FIG. 2) (combination judged 30 minutes post glucose treatment vs either alone): reduction in the fasting blood glucose level
